Assay results taken from ChEMBL document CHEMBL1129902, “Bioactivatable derivatives of 8-substituted cAMP-analogues” (Bioorg Med Chem Lett, 1997).

Key:
[1] = molecular target: cAMP-dependent protein kinase (PKA) (Homo sapiens, UniProt P22694+P17612+P22612); experiment: Activation of cAMP dependent protein kinase (PKA); assay type: functional
[2] = Lipophilicity relative to cAMP (log Kw=1); assay type: physicochemical

| EC50 [1] [µM] | Log Kw [2] | Compound |
| --- | --- | --- |
| 20 | – | Nc1ncnc2c1nc(Sc1ccc(Cl)cc1)n2[C@@H]1O[C@@H]2COP(=O)(O)O[C@H]2[C@H]1O |
| – | > 2 | CC(=O)OCOP1(=O)OC[C@@H]2O[C@@H](n3c(NCCO)nc4c(N)ncnc43)[C@H](O)[C@@H]2O1 (some centres not stated) |
| – | > 2 | CC(=O)OCOP1(=O)OC[C@@H]2O[C@@H](n3c(Br)nc4c(N)ncnc43)[C@H](O)[C@@H]2O1 (some centres not stated) |
| 10 | > 3.5 | CC(=O)OCOP1(=O)OC[C@@H]2O[C@@H](n3c(N4CCCCC4)nc4c(N)ncnc43)[C@H](O)[C@@H]2O1 (some centres not stated) |
| 0.15 | > 4 | CC(=O)OCOP1(=O)OC[C@@H]2O[C@@H](n3c(Sc4ccc(Cl)cc4)nc4c(N)ncnc43)[C@H](O)[C@@H]2O1 (some centres not stated) |
